“Also recorded” adds a separate entry of the source.
How the values were obtained:
PC12 (TrkA & p75) [1] = system: T1, PC12 (TrkA & p75); assay: 125I-NGF binding displacement in PC12 cells; parameters: species or system rat; conditions: for PC12 (TrkA & p75) Single point (% max binding) Mean: PC12 cells; for NGF binding displacement, dose-response curve: PC12 cells expressing TrkA and p75, individual experiment
T1 construct: other: Concentration 25 μM; PC12 cells; other: Concentration 50 μM; other: PC12 cells; 125I-NGF ~0.11 nM; other: PC12 cells expressing TrkA and p75; individual experiment; fused on or other part: 125I label on NGF
Protocol: (§1) All cells were incubated at 37° C. in 5% CO2. PC12 cells were maintained in RPMI-1640 medium supplemented with 10% fetal bovine serum (FBS). A875 human melanoma cells were maintained in DMEM with 10% FBS. HEK 293 cells were stably transfected with human TrkA plasmid (see below) and maintained in DMEM with 10% FBS and G418 (600 μg/mL) for selection.
(§2) NGF binding was evaluated using methods familiar to those who are skilled in the art. Briefly, cells expressing one or both NGF receptors (PC12: TrkA+p75; A875: p75 alone; HEK_TrkA: TrkA alone) were harvested by replacing the medium with calcium-magnesium free balanced salt (Grey's) solution and incubating at 37° C. for 15 min. For NGF binding, cells were resuspended at a concentration of 2×10^6 cells/mL in HEPES-Krebs-Ringer (HKR) buffer (10 mM HEPES; 125 mM NaCl; 4.8 mM KCl; 1.3 mM CaCl2; 1.2 mM MgSO4; 1.2 mM KH2PO4; 1 mg/ml BSA; 1 mg/ml glucose; pH 7.4) and exposed to ^125I-NGF (˜0.11 nM) in the presence or absence of varying concentrations of the compound. Non-specific binding was determined for reference by incubating ^125I-NGF with an excess of non-radioactive NGF in the absence of compound. Following a two-hour incubation period at 4° C., ^125I-NGF bound to the cells was quantified in a gamma radiation counter following separation from unbound NGF by filtration or centrifugation through glycerol (10% in HKR). Inhibition of binding was calculated as a percent of the specific binding (calculated as the differential between ^125I-NGF binding in the absence and presence of an excess of non-radioactive NGF without compound). Dose-response inhibition curves were typically generated with seven concentrations of a given compound, with three replicates for each concentration. For most compounds, multiple dose-response curves were generated.

Mice = assay: Writhing Test (acetic acid abdominal contraction test); type: in vivo, mouse; conditions: 100 mg/kg i.p., 30 minutes following acetic acid, vehicle 57±1
Protocol: The acetic acid abdominal contraction test (Martinez et al., Pain 1999; 81: 179) was used to determine the efficacy of different compounds in a model of acute visceral chemical nociception. […] Compound or vehicle was administered (i.p. or s.c.) 15-45 minutes prior to the acetic acid injection. Each episode of writhing is characterized by a lengthwise stretching of the torso with a concomitant arching of the back.
Statistical analysis was performed using Prism™ 4.01 software package (GraphPad, San Diego, Calif., USA). The difference in response levels between treatment groups and control vehicle group was analyzed using an ANOVA followed by Bonferroni's method for post-hoc pair-wise comparisons. A p value <0.05 was considered to be significant.

PC12 cells = assay: NGF-induced neurite outgrowth in PC12 cells; type: cell-based, rat; conditions: 4 days of exposure to NGF
Protocol: This assay was run as a further functional marker of NGF antagonism and takes advantage of the differentiation of PC12 cells (neurite outgrowth) induced by NGF. Cultures of PC12 cells were grown on Terasaki plates pre-coated with poly-D-lysine. Cells were exposed to NGF (1-50 (preferably 5) ng/ml) to induce neurite outgrowth as described elsewhere [L A Greene & A S Tischler, Establishment of a noradrenergic clonal line of rat adrenal pheochromocytoma cells which respond to nerve growth factor, Proc Natl Acad Sci USA. 1976 July; 73(7): 2424-2428]. In addition to NGF, cells were exposed to varying concentration of the compounds or vehicle. Following 4 days of exposure to NGF in the presence or absence of compound, neurite outgrowth was quantified. A neurite was scored if its caliber from origin to terminal was approximately the same and the length was equal to or greater than 1.5 the cell body diameter. The number of neurite bearing cells per total number of viable cells was calculated for each condition; the number of cells with neurites in the presence of NGF (without compound exposure) was considered to represent maximal (100%) outgrowth, to which the inhibitory effect of compounds of the invention on NGF-induced outgrowth was compared.

PC12 (TrkA & p75) [2] = system: T2, PC12 (TrkA & p75); assay: 125I-NGF binding displacement in PC12 cells; parameters: species or system rat; conditions: PC12, A875 and HEK_TrkA cells taken together
T2 construct: other: PC12, A875 an; fused on or other part: 125I label on NGF
Protocol: as §1, §2

A875: p75 alone = assay: 125I-NGF binding displacement in A875 cells; parameters: species or system human; conditions: A875 cells expressing p75; individual experiment
Protocol: as §1, §2

[3] = system: HEK_TrkA: TrkA alone (human TrkA); assay: 125I-NGF binding displacement in HEK_TrkA cells; conditions: individual experiment
Protocol: as §1
Expression of human TrkA in HEK cells was achieved by transfecting the cells with the TrkA expression vector using Lipofectamine (Invitrogen) reagent. HEK cells were plated in 100 mm Petri dishes at a concentration of 10^6 cells per dish. The next day, a solution of DNA diluted in 1 mL OptiMEM (Invitrogen) per dish was prepared and incubated for 15 min at room temperature. […]
NGF binding was evaluated using methods familiar to those who are skilled in the art. […] Non-specific binding was determined for reference by incubating ^125I-NGF with an excess of non-radioactive NGF in the absence of compound. Following a two-hour incubation period at 4° C., ^125I-NGF bound to the cells was quantified in a gamma radiation counter following separation from unbound NGF by filtration or centrifugation through glycerol (10% in HKR). Inhibition of binding was calculated as a percent of the specific binding (calculated as the differential between ^125I-NGF binding in the absence and presence of an excess of non-radioactive NGF without compound). […]

Male Sprague-Dawley rats = assay: Spared Nerve Injury (SNI) model of neuropathic pain; type: in vivo, rat; conditions: Von Frey filaments, 90 min post-treatment, Compound 11 3 and 10 mg/kg i.p., Compound 107 20 mg/kg i.p.
Text: The Spared Nerve Injury (SNI) model (Decosterd et al., Pain 2000; 87: 149) was used to induce chronic neuropathic pain. Male Sprague-Dawley rats were anesthetized with isoflurane, and two of the three terminal branches of the sciatic nerve (tibial and common peroneal nerves) were transected, leaving the remaining sural nerve intact. Animals develop thermal and mechanical hyperalgesia and allodynia, as well as spontaneous pain or dysesthesia that last month after the nerve injury.
Mechanical allodynia testing: Pre- and post-injury baselines as well as post-treatment values (vehicle or compound-treated animals) for mechanical allodynia were evaluated using Von Frey filaments (Stoelting, Wood Dale, Ill., USA) with varying stiffness. […] The mean and standard error of the mean (SEM) were determined for each paw in each treatment group (ipsilateral/injured paw and contralateral/non-injured paw). […] Effects of compounds were evaluated two weeks after the injury. Compound or vehicle was administered (i.p. or s.c.) and effects on mechanical allodynia were measured at different time points after dosing (e.g., 30, 60 and 90 min.).
Data analysis: Statistical analyses were conducted using Prism™ 4.01 (GraphPad, San Diego, Calif., USA). Mechanical hypersensitivity of the injured paw was determined by comparing contralateral to ipsilateral paw values within the vehicle group at each time point. […]

## O=C(O)CCCN1C(=O)c2cccc3c(Cl)ccc(c23)C1=O [Compound 104, 4-(6-Chloro-1,3-dioxo-1H,3H-benzo[de]isoquinolin-2-yl)-butyric acid]
PC12 (TrkA & p75) [1]; Concentration 25 μM
  PC12 (TrkA & p75) Single point (% max binding) Mean: ** (30 < ** <50)

## CN(C)S(=O)(=O)c1ccc2c3c(cccc13)C(=O)N(CCCC(=O)O)C2=O [Compound 112, 4-(6-Dimethylsulfamoyl-1,3-dioxo-1H,3H-benzo[de]isoquinolin-2-yl)-butyric acid]
PC12 (TrkA & p75) [1]; Concentration 50 μM
  PC12 (TrkA & p75) Single point (% max binding) Mean: *** (* < *** <30)

## O=C(O)CCCN1C(=O)c2cccc3cc([N+](=O)[O-])cc(c23)C1=O [Compound 63, 4-(5-Nitro-1,3-dioxo-1H,3H-benzo[de]isoquinolin-2-yl)-butyric acid]
Mice
  Number of abdominal contractions (writhing): 9±3

## NC(=O)c1cc2c3c(cccc3c1)C(=O)N(CCCC(=O)O)C2=O [Compound 95, 4-(5-Carbamoyl-1,3-dioxo-1H,3H-benzo[de]isoquinolin-2-yl)-butyric acid]
PC12 cells
  Inhibition of NGF-induced neurite outgrowth: effectively inhibits neurite outgrowth induced by NGF

## O=C1Nc2ccc([N+](=O)[O-])c3cccc1c23 [Compound 103, 6-Nitro-1H-benzo[cd]indol-2-one]
PC12 (TrkA & p75) [1]; Concentration 25 μM
  PC12 (TrkA & p75) Single point (% max binding) Mean: * (* >50)

## CN(C)S(=O)(=O)c1cc2c3c(cccc3c1)C(=O)N(CCCC(=O)O)C2=O [Compound 114, 4-(5-Dimethylsulfamoyl-1,3-dioxo-1H,3H-benzo[de]isoquinolin-2-yl)-butyric acid]
PC12 (TrkA & p75) [1]; Concentration 50 μM
  PC12 (TrkA & p75) Single point (% max binding) Mean: ** (30 < ** <50)

## O=C(O)CCCN1C(=O)c2cccc3c(C(=O)c4ccccc4)ccc(c23)C1=O [Compound 99, 4-(6-Benzoyl-1,3-dioxo-1H,3H-benzo[de]isoquinolin-2-yl)-butyric acid]
PC12 (TrkA & p75) [1]; Concentration 25 μM
  PC12 (TrkA & p75) Single point (% max binding) Mean: *** (* < *** <30)

## N#Cc1cc2c3c(cccc3c1)C(=O)N(CCCC(=O)O)C2=O [Compound 124, 4-(5-Cyano-1,3-dioxo-1H,3H-benzo[de]isoquinolin-2-yl)-butyric acid]
PC12 (TrkA & p75) [1]
  NGF binding displacement, dose-response curve: effectively blocks NGF binding to cells expressing TrkA and p75
PC12 (TrkA & p75) [2]
  Block of NGF binding to TrkA and/or p75 (summary of FIGS. 1B, 2A, 2B, 4A, 4B, 6A, 6B, 7A, 8A, 8B): effectively block NGF binding to TrkA and/or p75
A875: p75 alone
  NGF binding displacement, dose-response curve: effectively blocks NGF binding to cells expressing p75
PC12 cells
  Inhibition of NGF-induced neurite outgrowth: effectively inhibit neurite outgrowth induced by NGF

## O=C(O)CCCN1C(=O)c2cccc3c(C(=O)O)ccc(c23)C1=O [Compound 100, 2-(3-Carboxy-propyl)-1,3-dioxo-2,3-dihydro-1H-benzo[de]isoquinoline-6-carboxylic acid]
PC12 (TrkA & p75) [1]; Concentration 25 μM
  PC12 (TrkA & p75) Single point (% max binding) Mean: *** (* < *** <30)

## O=C(O)CCCN1C(=O)c2cc(Br)cc3cc([N+](=O)[O-])cc(c23)C1=O [Compound 89, 4-(5-Bromo-8-nitro-1,3-dioxo-1H,3H-benzo[de]isoquinolin-2-yl)-butyric acid]
PC12 (TrkA & p75) [1]; Concentration 50 μM
  PC12 (TrkA & p75) Single point (% max binding) Mean: ** (30 < ** <50)

## CC(=O)Nc1cc2c3c(cc(NC(C)=O)cc3c1)C(=O)N(CCCS(=O)(=O)O)C2=O [Compound 107, 3-(5,8-Bis-acetylamino-1,3-dioxo-1H,3H-benzo[de]isoquinolin-2-yl)-propane-1-sulfonic acid]
PC12 (TrkA & p75) [1]
  NGF binding displacement, dose-response curve: effectively blocks NGF binding to cells expressing TrkA and p75
PC12 (TrkA & p75) [2]
  Block of NGF binding to TrkA and/or p75 (summary of FIGS. 1B, 2A, 2B, 4A, 4B, 6A, 6B, 7A, 8A, 8B): effectively block NGF binding to TrkA and/or p75
A875: p75 alone
  NGF binding displacement, dose-response curve: effectively blocks NGF binding to cells expressing p75
[3]
  NGF binding displacement, dose-response curve: effectively blocks NGF binding to cells expressing TrkA
PC12 cells
  Inhibition of NGF-induced neurite outgrowth: effectively inhibits neurite outgrowth induced by NGF
Male Sprague-Dawley rats
  Effect on mechanical allodynia in the SNI model: significant dose-dependent reversal of the mechanical allodynia; also recorded: significant antinociceptive effects

## O=C(O)CCCN1C(=O)c2cccc3c(S(=O)(=O)N4CCOCC4)ccc(c23)C1=O [Compound 113, 4-[6-(Morpholine-4-sulfonyl)-1,3-dioxo-1H,3H-benzo[de]isoquinolin-2-yl]-butyric acid]
PC12 (TrkA & p75) [1]; Concentration 50 μM
  PC12 (TrkA & p75) Single point (% max binding) Mean: ** (30 < ** <50)

## NNC(=O)NN1C(=O)c2cc(S(=O)(=O)[O-])cc3c(N)c(S(=O)(=O)[O-])cc(c23)C1=O.[K+].[K+] [Compound 52, 6-Amino-1,3-dioxo-2-amino-ureido-2,3-dihydro-1H-benzo[de]isoquinoline-5,8-disulfonic acid-di-potassium salt]
PC12 (TrkA & p75) [1]; Concentration 50 μM
  PC12 (TrkA & p75) Single point (% max binding) Mean: * (* >50)

From patent US7579468B2, “Methods of modulating neurotrophin-mediated activity” (PainCeptor Pharma Corporation, priority 2005, dated 2009)
